From BindingDB's records for PubMed 31761384 (China Pharmaceutical University, 2020)
Bridge positions count the residues as written; N and C are the ends. Peptide text beside a SMILES is read from it.

Test: Inhibition of human PD-1 expressed in rat PBMCs/human PD-L1 expressed in MDA-MB-231 cells protein-protein interaction assessed as increase in PBMCs proliferation

With `CC[C@H](C)[C@@H]1NC(=O)[C@H](CC(C)C)NC(=O)[C@H](Cc2ccccc2)NC(=O)CSC[C@@H](C(=O)NCC(N)=O)NC(=O)[C@H](CCCNC(=N)N)NC(=O)[C@H](Cc2ccccc2)NC(=O)[C@H](C(C)C)NC(=O)[C@H](CCCNC(=N)N)NC(=O)[C@H](CC(=O)O)NC(=O)[C@H](CCCNC(=N)N)NC(=O)[C@H]([C@@H](C)CC)NC(=O)[C@H](C(C)C)NC1=O` ({CH2CO}-FLIVIRDRVFRCG-NH2; thioether N-12) as the molecule, how does the EC50 read?
The EC50 was 0.41 nM.
